What was measured:
Type in all cases: in vivo
[1] = tested on: tomato (Lycopersicon esculentum); assay: Postemergence herbicidal activity, tomato; settings: Solanum lycopersicum, post-emergence, 336 h, Post, 2 lb/A
Procedure, shortened: (§1)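 Acetone-dissolved compound, water-diluted, sprayed over soil flats at 50 gallons/acre carrier and lb/A rates; pre- vs postemergence timing is at planting vs two weeks after germination. Evaluation ~two weeks post-spray, expressed as mean percentage of plants dead.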

wild oats (Avena fatua) [2] = assay: Postemergence herbicidal activity, wild oats; settings: Avena fatua, post-emergence, 336 h, Post, 2 lb/A; read-out: % control, Wild oat
Procedure, shortened: as §1

foxtail (Setaria spp.) [3] = assay: Preemergence herbicidal activity, foxtail; settings: Setaria, pre-emergence, 336 h; Pre, 2 lb/A
Procedure, shortened: as §1

[4] = tested on: cocklebur (Xanthium pensylvanicum); assay: Postemergence herbicidal activity, cocklebur; settings: Xanthium strumarium, post-emergence, 336 h, 2 lb/A
Procedure, shortened: as §1

[5] = tested on: tomato (Lycopersicon esculentum); assay: Preemergence herbicidal activity, tomato; settings: Solanum lycopersicum, pre-emergence, 336 h; Pre, 2 lb/A
Procedure, shortened: as §1

[6] = tested on: morningglory (Ipomoca spp.); assay: Postemergence herbicidal activity, morningglory; settings: Ipomoea, post-emergence, 336 h, 2 lb/A
Procedure, shortened: as §1

[7] = tested on: velvetleaf (Abutilon theophrasti); assay: Postemergence herbicidal activity, velvetleaf; settings: Abutilon theophrasti, post-emergence, 336 h, 2 lb/A
Procedure, shortened: (§2)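 Application rates are expressed as lb/A, with the compound taken up in acetone, then water, and sprayed at a 50 gal/acre-equivalent carrier volume. Treatment timing: immediately post-sowing for preemergence; two weeks after germination for postemergence.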

marigold (Tagetes spp.) [8] = assay: Postemergence herbicidal activity, marigold; settings: post-emergence, 336 h, 2 lb/A
Procedure, shortened: as §1

[9] = tested on: downybrome (Bromus tectorum); assay: Preemergence herbicidal activity, downybrome; settings: Bromus tectorum, pre-emergence, 336 h, Pre, 2 lb/A
Procedure, shortened: as §1

[10] = tested on: barnyardgrass (Echinochloa crusgalli); assay: Postemergence herbicidal activity, barnyardgrass; settings: Echinochloa crus-galli, post-emergence, 336 h; Post, 2 lb/A
Procedure, shortened: as §2

foxtail (Setaria spp.) [11] = assay: Postemergence herbicidal activity, foxtail; settings: Setaria, post-emergence, 336 h, Post, 2 lb/A
Procedure, shortened: as §1

[12] = tested on: yellow nutsedge (Cyperus esculentus); assay: Preemergence herbicidal activity, yellow nutsedge; settings: Cyperus, pre-emergence, 336 h, 2 lb/A
Procedure, shortened: as §1

[13] = tested on: morningglory (Ipomoca spp.); assay: Preemergence herbicidal activity, morningglory; settings: Ipomoea, pre-emergence, 336 h, 2 lb/A
Procedure, shortened: as §1

marigold (Tagetes spp.) [14] = assay: Preemergence herbicidal activity, marigold; settings: pre-emergence, 336 h, 2 lb/A
Procedure, shortened: as §1

[15] = tested on: barnyardgrass (Echinochloa crusgalli); assay: Preemergence herbicidal activity, barnyardgrass; settings: Echinochloa crus-galli, pre-emergence, 336 h; Pre, 2 lb/A
Procedure, shortened: as §2

[16] = tested on: yellow nutsedge (Cyperus esculentus); assay: Postemergence herbicidal activity, yellow nutsedge; settings: Cyperus, post-emergence, 336 h, 2 lb/A
Procedure, shortened: as §1

[17] = tested on: downybrome (Bromus tectorum); assay: Postemergence herbicidal activity, downybrome; settings: Bromus tectorum, post-emergence, 336 h, Post, 2 lb/A
Procedure, shortened: as §1

[18] = tested on: velvetleaf (Abutilon theophrasti); assay: Preemergence herbicidal activity, velvetleaf; settings: Abutilon theophrasti, pre-emergence, 336 h; Pre, 2 lb/A
Procedure, shortened: as §1

[19] = tested on: cocklebur (Xanthium pensylvanicum); assay: Preemergence herbicidal activity, cocklebur; settings: Xanthium strumarium, pre-emergence, 336 h, 2 lb/A
Procedure, shortened: as §1

wild oats (Avena fatua) [20] = assay: Preemergence herbicidal activity, wild oats; settings: Avena fatua, pre-emergence, 336 h, Pre, 2 lb/A; read-out: % control, Wild oat
Procedure, shortened: as §1

Structure (SMILES) | pest or weed control at 2241.7 g/ha [1] [%] | pest or weed control at 2241.7 g/ha (wild oats (Avena fatua) [2]) [%] | pest or weed control at 2241.7 g/ha (foxtail (Setaria spp.) [3]) [%] | pest or weed control at 2241.7 g/ha [4] [%] | pest or weed control at 2241.7 g/ha [5] [%] | pest or weed control at 2241.7 g/ha [6] [%] | pest or weed control at 2241.7 g/ha [7] [%] | pest or weed control at 2241.7 g/ha (marigold (Tagetes spp.) [8]) [%] | pest or weed control at 2241.7 g/ha [9] [%] | pest or weed control at 2241.7 g/ha [10] [%] | pest or weed control at 2241.7 g/ha (foxtail (Setaria spp.) [11]) [%] | pest or weed control at 2241.7 g/ha [12] [%] | pest or weed control at 2241.7 g/ha [13] [%] | pest or weed control at 2241.7 g/ha (marigold (Tagetes spp.) [14]) [%] | pest or weed control at 2241.7 g/ha [15] [%] | pest or weed control at 2241.7 g/ha [16] [%] | pest or weed control at 2241.7 g/ha [17] [%] | pest or weed control at 2241.7 g/ha [18] [%] | pest or weed control at 2241.7 g/ha [19] [%] | pest or weed control at 2241.7 g/ha (wild oats (Avena fatua) [20]) [%]
CCNC(=O)C(C)Oc1ccc(Oc2ccc(C(F)(F)F)cc2Cl)cc1 (centres unmarked) [Example 21] | 0 | 99 | 100 | 0 | 0 | 0 | 0 | 0 | 90 | 100 | 100 | 0 | 0 | 0 | 100 | 0 | 30 | 0 | 0 | 40
C=CCOC(=O)C(C)Oc1ccc(Oc2ccc(C(F)(F)F)cc2Cl)cc1 (centres unmarked) [Example 24] | 95 | 100 | 100 | 20 | 0 | 20 | 80 | 50 | 99 | 100 | 100 | 30 | 0 | 0 | 100 | 0 | 100 | 0 | 100 | 80
CCC(C)OC(=O)C(C)Oc1ccc(Oc2ccc(C(F)(F)F)cc2Cl)cc1 (centres unmarked) [Example 34] | 0 | 100 | 100 | 0 | 0 | 0 | 0 | 0 | 95 | 100 | 100 | 0 | 0 | 0 | 100 | 0 | 99 | 0 | 0 | 80
CC(Oc1ccc(Oc2ccc(C(F)(F)F)cc2Cl)cc1)C(N)=O (centres unmarked) [Example 18] | 0 | 95 | 100 | 0 | 0 | 0 | 0 | 0 | 95 | 99 | 99 | 0 | 0 | 0 | 100 | 0 | 40 | 0 | 0 | 0
CCOC(=O)C(C)Oc1ccc(Sc2ccc(C(F)(F)F)cc2[N+](=O)[O-])cc1 (centres unmarked) [Example 48, Ethyl 2-[4-(2-nitro-4-trifluoromethylphenylthio)phenoxy] propionate] | 0 | 80 | 95 | 0 | 0 | 0 | 0 | 0 | 30 | 60 | 20 | 0 | 0 | 0 | 95 | 0 | 0 | 0 | 0 | 0
CC(C)OC(=O)C(C)Oc1ccc(Oc2ccc(C(F)(F)F)cc2Cl)cc1 (centres unmarked) [Example 22] | 99 | 100 | 100 | 30 | 0 | 20 | 40 | 30 | 95 | 100 | 100 | 0 | 0 | 0 | 100 | 0 | 99 | 0 | 0 | 60
CC(C)COC(=O)C(C)Oc1ccc(Oc2ccc(C(F)(F)F)cc2Cl)cc1 (centres unmarked) [Example 33] | 0 | 100 | 100 | 0 | 0 | 0 | 0 | 0 | 90 | 100 | 100 | 0 | 0 | 0 | 99 | 0 | 100 | 0 | 0 | 90

From patent publication US4335249A, “Herbicidal diphenyl ethers, sulfides, sulfoxides and sulfones” (Rohm and Haas Company, priority 1976, dated 1982)
